Source: ChEMBL document CHEMBL1201862, “PubChem BioAssay data set” (2004)
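Cells were grown in 96-well plates and exposed to each compound for 48 hours at five concentrations; endpoints were interpolated linearly between bracketing concentrations, or set to the highest concentration if not reached. At the GI50, growth is halved.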 The source made the active and inactive calls. Cut-off read from the data, not from the text of the source: active = GI50 up to about 1.1 µM and inactive = higher.

Columns and labels:
Test in all cases: inhibition of tumour cell growth, NCI panel, 48 h
HCT-116 = system: HCT-116
HT-29 = system: HT-29
HOP-92 = system: HOP-92
OVCAR-3 = system: OVCAR-3
RPMI-8226 = system: RPMI-8226
SK-MEL-2 = system: SK-MEL-2
SK-OV-3 = system: SK-OV-3
HOP-62 = system: HOP-62
SK-MEL-5 = system: SK-MEL-5
MOLT-4 = system: MOLT-4
OVCAR-5 = system: OVCAR-5
PC-3 = system: PC-3
NCI-H23 = system: NCI-H23
MCF7 = system: MCF7
UACC-62 = system: UACC-62
TK-10 = system: TK-10
A498 = system: A498
MDA-MB-231 = system: MDA-MB-231
SF-539 = system: SF-539

| SMILES | GI50 (HCT-116) | GI50 (HT-29) | GI50 (HOP-92) | GI50 (OVCAR-3) | GI50 (RPMI-8226) | GI50 (SK-MEL-2) | GI50 (SK-OV-3) | GI50 (HOP-62) | GI50 (SK-MEL-5) | GI50 (MOLT-4) | GI50 (OVCAR-5) | GI50 (PC-3) | GI50 (NCI-H23) | GI50 (MCF7) | GI50 (UACC-62) | GI50 (TK-10) | GI50 (A498) | GI50 (MDA-MB-231) | GI50 (SF-539) |
| --- | --- | --- | --- | --- | --- | --- | --- | --- | --- | --- | --- | --- | --- | --- | --- | --- | --- | --- | --- |
| CCSC1=N/C(=C\c2ccc(N(C)C)cc2)C(Cl)=N1 | > 100 µM (inactive) | > 100 µM (inactive) | > 100 µM (inactive) | > 100 µM (inactive) | 59.3 µM (inactive) | > 100 µM (inactive) | > 100 µM (inactive) | > 100 µM (inactive) | > 100 µM (inactive) | > 100 µM (inactive) | > 100 µM (inactive) | > 100 µM (inactive) | > 100 µM (inactive) | > 100 µM (inactive) | > 100 µM (inactive) | > 100 µM (inactive) | > 100 µM (inactive) | > 100 µM (inactive) | – |
| Cc1ccc(N2C(=O)C3c4[nH]c5ccccc5c4C4CCC(C(C)(C)C)CC4C3C2=O)cc1 (configuration not stated) | 11.1 µM (inactive) | 13 µM (inactive) | 15.1 µM (inactive) | 3.03 µM (inactive) | 8.85 µM (inactive) | 21.3 µM (inactive) | 14.9 µM (inactive) | 5.38 µM (inactive) | 16.8 µM (inactive) | 3.17 µM (inactive) | 14.1 µM (inactive) | 13 µM (inactive) | 15.1 µM (inactive) | 12.6 µM (inactive) | 16.4 µM (inactive) | 6 µM (inactive) | 16.2 µM (inactive) | 3.78 µM (inactive) | – |
| O=C1CC2CC(CC3(CO3)C2)C1F (configuration not stated) | > 100 µM (inactive) | > 100 µM (inactive) | 23 µM (inactive) | – | > 100 µM (inactive) | > 100 µM (inactive) | > 100 µM (inactive) | > 100 µM (inactive) | > 100 µM (inactive) | > 100 µM (inactive) | > 100 µM (inactive) | > 100 µM (inactive) | > 100 µM (inactive) | > 100 µM (inactive) | > 100 µM (inactive) | > 100 µM (inactive) | > 100 µM (inactive) | > 100 µM (inactive) | – |
| CCn1c(=O)c2c3cc(O)ccc3oc2c2ccc(O)cc21 | – | 25.2 µM (inactive) | 26.2 µM (inactive) | 29.9 µM (inactive) | – | – | 43.6 µM (inactive) | 28.8 µM (inactive) | 17 µM (inactive) | 16.1 µM (inactive) | – | 31.1 µM (inactive) | 41.3 µM (inactive) | 28.6 µM (inactive) | 20.3 µM (inactive) | 24.8 µM (inactive) | 18.9 µM (inactive) | 25.2 µM (inactive) | 16.7 µM (inactive) |
| COc1cc2c(cc1OCCCOc1cc3c(cc1OC)C(=O)N1CCC[C@H]1CN3)N=C[C@@H]1CCCN1C2=O | 0.124 µM (active) | 0.244 µM (active) | 0.145 µM (active) | 0.0929 µM (active) | – | 0.0977 µM (active) | 0.54 µM (active) | 0.0317 µM (active) | 0.126 µM (active) | 0.011 µM (active) | 0.182 µM (active) | 0.279 µM (active) | 0.158 µM (active) | < 0.0391 µM (active) | 0.1 µM (active) | 0.163 µM (active) | – | 0.145 µM (active) | 0.024 µM (active) |
| CC(/C=N/N=C1NCCCCN1)=N\N=C1NCCCCN1 | 86.3 µM (inactive) | 84.1 µM (inactive) | 37.9 µM (inactive) | > 100 µM (inactive) | > 100 µM (inactive) | – | > 100 µM (inactive) | > 100 µM (inactive) | 49.2 µM (inactive) | 87.3 µM (inactive) | > 100 µM (inactive) | 87.7 µM (inactive) | > 100 µM (inactive) | 64.9 µM (inactive) | > 100 µM (inactive) | > 100 µM (inactive) | – | > 100 µM (inactive) | > 100 µM (inactive) |
| Cc1cc2c(O)nc(N)nc2nc1C | > 100 µM (inactive) | > 100 µM (inactive) | > 100 µM (inactive) | > 100 µM (inactive) | > 100 µM (inactive) | > 100 µM (inactive) | > 100 µM (inactive) | > 100 µM (inactive) | > 100 µM (inactive) | – | > 100 µM (inactive) | > 100 µM (inactive) | > 100 µM (inactive) | > 100 µM (inactive) | > 100 µM (inactive) | > 100 µM (inactive) | > 100 µM (inactive) | > 100 µM (inactive) | – |
| O=C(O)/C=C/c1c2ccc(=O)c(O)c-2oc2c(O)c(O)ccc12 | 17 µM (inactive) | 63.7 µM (inactive) | > 100 µM (inactive) | 45 µM (inactive) | 23.2 µM (inactive) | 55.1 µM (inactive) | 98.4 µM (inactive) | 23.4 µM (inactive) | 54 µM (inactive) | 18.9 µM (inactive) | 78.2 µM (inactive) | > 100 µM (inactive) | > 100 µM (inactive) | 17.2 µM (inactive) | 50.1 µM (inactive) | > 100 µM (inactive) | > 100 µM (inactive) | 20.8 µM (inactive) | – |
